# From publication PMC9975698, “Hyperoside alleviates toxicity of β-amyloid via endoplasmic reticulum-mitochondrial calcium signal transduction cascade in APP/PS1 double transgenic Alzheimer's disease mice” (Redox Biology, 2023)
# Experiments:
# APP/PS1 mice [1] = assay: Thioflavin S staining of Aβ plaques in brain; assay type: in vivo; settings: cortex and hippocampus, HYP 20/40/80 mg/kg nasal, 8 weeks
# Experimental: All animal care and experimental procedures were performed in accordance with the “Institutional Animal Care and User Committee Guidelines” of the Macau University of Science and Technology. APP/PSEN1 (APP/PS1) mice (N000175) were purchased from the Nanjing Institute of Biomedical Sciences, Nanjing University, China, weighing 25 ± 5 g. The animals were housed in a temperature-controlled room with a 12 h light/dark cycle and given ad libitum food and water. Male mice were randomly divided into the following 6 experimental groups. (a) wild-type group (n = 6), (b) APP/PS1 group (n = 6), (c) HYP (20 mg/kg group) (n = 7), (d) HYP (40 mg/kg) group (n = 8), (e) HYP (80 mg/kg) group (n = 8) and (f) memantine (MEM) (10 mg/kg) positive control group (n = 8). HYP was dissolved in the solvent containing 10% DMSO, 40% PEG300 and 5% Tween-80 in PBS, and administrated via nasal injection for every 3 days with a volume of 0.5 μL/g of body weight for 8 consecutive weeks. Paraffin sections of the brain were washed three times with PBS after dewaxing and then stained with THS dissolved in 50% alcohol for 7 min, followed by 50% alcohol solution for washing. Sections were then air-dried and sealed with neutral gel for microscopic observation. Images were captured by API DeltaVision Live‐cell Imaging System (Applied Precision Inc., DC, USA).
# APP/PS1 mice [2] = assay: Western blot of APP/GFAP/APP-β/BACE1 in cortex and hippocampus lysates; assay type: in vivo
# Experimental: After HYP treatment, the cells were lysed with RIPA. Protein concentrations were determined by Bio-Rad protein assay (Bio-Rad Laboratories, CA, USA). After electrophoretic separation, the gels were blotted and stained with primary antibodies. Binding of antibodies was visualized with peroxidase-coupled secondary antibodies using ECL Western Blotting detection reagents (Invitrogen, Scotland, UK). Band intensities were quantified using ImageJ software. Data were obtained from three independent experiments. All animal care and experimental procedures were performed in accordance with the “Institutional Animal Care and User Committee Guidelines” of the Macau University of Science and Technology. APP/PSEN1 (APP/PS1) mice (N000175) were purchased from the Nanjing Institute of Biomedical Sciences, Nanjing University, China, weighing 25 ± 5 g. The animals were housed in a temperature-controlled room with a 12 h light/dark cycle and given ad libitum food and water. Male mice were randomly divided into the following 6 experimental groups. (a) wild-type group (n = 6), (b) APP/PS1 group (n = 6), (c) HYP (20 mg/kg group) (n = 7), (d) HYP (40 mg/kg) group (n = 8), (e) HYP (80 mg/kg) group (n = 8) and (f) memantine (MEM) (10 mg/kg) positive control group (n = 8). […]
# APP/PS1 mice [3] = assay: RT-PCR validation of calcium-related genes in mice; assay type: in vivo; settings: HYP group compared to APP/PS1 group
# Experimental: To investigate the molecular mechanism of HYP, initial data (36,668 raw reads) obtained from the RNA sequencing were performed. […] In GO classification, the unigenes were annotated in three major categories (Fig. 8B). […] For the biological process category, most of the unigenes were matched to immune and signaling processes. For the cellular component category, most of the unigenes were assigned to cell and cell part. For the molecular function category, binding activity accounted for the largest proportion. […] Gene set enrichment analysis (GSEA) has been extensively applied to identify underlying pathways. In Fig. 8D, GSEA analysis of calcium channels was performed in conjunction with the previous AD hypothesis. Next, the relative expression levels of the hub genes in the APP and HYP-treated mice groups were examined by RT-PCR analysis.
# HT22 cells = assay: ATP content measurement by LC-MS/MS; assay type: cell-based; settings: Aβ aggregates with HYP 20, 40, 80 μM, 24 h
# Experimental: HT22 cells were co-treated with Aβ aggregates and HYP (20–80 μM) for 24 h and washed with PBS. Each digested sample was re-suspended in 10 mL of ice-cold PBS, followed by centrifugation for 5 min (300 g, 4 °C). Cell pellets were then treated with 85% cold methanol (2 × 10^6 cells / 100 μL) containing 2 μM ATP-^13C10,^15N5, then vortexed for 1 min and placed on ice for 10 min. After centrifugation (13,000 g) at 4 °C for 15 min, the supernatant was transferred into another tube. The derivatization reaction was initiated by adding 75 μL of derivatization reagent MTBSTFA into 200 μL of cell lysis with 85% methanol and completed over 5 min with consistent vortex. Derivatization samples were then centrifuged (13,000 g) at 4 °C for 10 min, and 25 μL of the supernatant was injected into LC-MS/MS system for analysis.
smiles,measurement,setting,value
"O=c1c(O[C@@H]2O[C@H](CO)[C@H](O)[C@H](O)[C@H]2O)c(-c2ccc(O)c(O)c2)oc2cc(O)cc(O)c12 [HYP, Quercetin-3-O-β-D-galactopyranoside]",level of Aβ plaques (ThS),APP/PS1 mice [1],reduced the level of Aβ plaques in the cortex and hippocampus of APP/PS1 mice in a dose-dependent manner
same,level of BACE1 and APP-β proteins,APP/PS1 mice [2],reduced the level of APP hydrolysis pathway-associated proteins such as BACE1 and APP-β
same,mRNA expression levels of calcium-related genes,APP/PS1 mice [3],"mRNA expression levels of Cav2.3, Cav1.3, NCLX and TRPV4 were decreased"
same,ATP content,HT22 cells,rescued the Aβ-induced decrease in mitochondrial ATP
